Assay results published in US20250026741A1, “INHIBITORS OF THE ONCOGENIC SHP2 PHOSPHATASE AND USES THEREOF” (Sanford Burnham Prebys Medical Discovery Institute, priority 2021, published 2025).

Legend:
[1] = target: full-length SHP2 wild-type (SHP2-WT) (Homo sapiens (Human), UniProt Q06124); assay: DiFMUP fluorescence intensity phosphatase inhibition assay, SHP2-WT activated with IRS-1 peptide; assay type: biochemical; conditions: DiFMUP at Km (60 μM), IRS-1 peptide activated
Description: To test the synthesized compounds for their potential to inhibit SHP2 activity, a fluorescence intensity-based assay using 6,8-difluoro-4-methylumbelliferyl phosphate (DiFMUP) as the substrate was adapted for three recombinant SHP2 constructs: 1) the SHP2 catalytic domain (SHP2cat; residues 248-527), 2) the full-length SHP2-E76K oncogenic mutant, and 3) the full-length SHP2 wild-type (SHP2-WT). The recombinant SHP2 proteins were expressed and purified. A dually phosphorylated peptide derived from the insulin receptor substrate 1 (IRS-1) served as a surrogate binding protein and was used to activate SHP2-WT. […] Michaelis-Menten experiments to determine the DiFMUP Michaelis-Menten constant (Kmn) for each SHP2 construct were performed and yielded the following values: SHP2-WT, Km=60 μM; SHP2-E76K, Km=20 μM; SHP2cat, Km=20 μM. Relative maximum rates (Vmax) of the DiFMUP reactions were as follows: SHP2-WT, Vmax=871 AFU/min; SHP2-E76K, Vmax, =2730 AFU/min; SHP2cat, Vmax=2912 AFU/min. IC50 values for each compound were determined from initial rates in 10-point dose-response assays using DiFMUP at a concentration corresponding to its Km value for the respective SHP2 construct.
SHP2 inhibitors were tested at room temperature (RT) in a 384-well plate format standard phosphatase fluorescence intensity assay using DiFMUP (Invitrogen/Thermo Fisher Scientific, Carlsbad, CA) as a substrate and a total reaction volume of 25 μL. SHP2 inhibitors or vehicle (DMSO) were spotted in triplicate into a black Greiner FLUOTRAC™ 200 384-well microplate (#781076, Greiner) for a 10-point dose-response assay using an Echo®555 Liquid Handler (Labcyte, Inc., San Jose, CA). PTP working solutions were prepared at a 0.625 nM concentration (for a final concentration of 0.5 nM) in buffer containing 50 mM Bis-Tris pH 6.0, 50 mM NaCl, 5 mM DTT, and 0.01% Tween® 20. Prior to the assay, a dually phosphorylated insulin receptor substrate 1 (IRS-1) peptide [625 nM (500 nMfinal) (30)] was added to full-length WT SHP2 working solutions and incubated for 20 min. DiFMUP working solutions at 5× final concentration were prepared in 50 mM Bis-Tris pH 6.0, 50 mMNaCl, and 0.01% Tween 20. 20 μL of PTP working solution was dispensed into the microplate and incubated with inhibitor for 20 min at RT. […] The reaction was initiated by addition of 5 μL DiFMUP working solutions. Fluorescence intensity was measured in kinetic mode (every minute for 7 or 10 min) using a Tecan Spark® Multimode Microplate Reader (Tecan, Groedig, Austria) with an excitation wavelength of 360 nm and an emission wavelength of 460 nm. The initial rates were determined from the linear progression curves of the PTP reaction. The nonenzymatic hydrolysis of the substrate was corrected by using a control without addition of enzyme. IC50 values were calculated from the corrected initial rates by nonlinear regression using the program GraphPad Prism (GraphPad Software, Inc., San Diego, CA) Version 8. Dose-response inhibition assays of SHP2cat using the substrate OMFP were performed similarly as described above for DiFMUP. OMFP was used at a concentration corresponding to its Km value for SHP2cat (50 μM final). Fluorescence intensity was measured in kinetic mode (every minute for 10 min) using a Tecan Spark Multimode Microplate Reader with an excitation wavelength of 485 nm and an emission wavelength of 535 nm. Initial rates were determined and IC50 vales calculated as described above.

[2] = system: Kasumi-1 acute myeloid leukemia (AML) cells; assay: Cell viability assay (CellTiter-Glo), Kasumi-1; assay type: cell-based; conditions: Kasumi-1 cells, various concentrations, 3 d
Description: Inhibition of SHP2 has been reported to inhibit the growth of cancer cells including Kasumi-1 acute myeloid leukemia (AML) and KYSE-520 esophageal cancer cells. […] Cell viability is shown as a percentage of the vehicle (DMSO) control and represents the mean±SD. B) #02 dose-response curves in cell viability assays using Kasumi-1, KYSE-520, MOLM-13, and […] cells after 3 d in culture. The percentages compared to DMSO vehicle control were curve fitted using nonlinear regression (log[inhibitor] vs. normalized response, variable slope) and represent the mean±SD. C) Cell viability of […] and MDA-MB-468 triple-negative breast cancer (TNBC) cells in the presence of various concentrations of #02 or the SHP2 allosteric inhibitor SHP099 after 5 d in culture. Cell viability is shown as a percentage of DMSO vehicle control, representing mean±SD, and curve fitted as in B). D) Colony formation assay (11 d) of […] and MDA-MB-468 TNBC cells in the presence of various concentrations of #02 or the SHP2 allosteric inhibitor SHP099. E) Phospho-ERK1/2 (p-ERK1/2) immunoblot analysis from total cell lysates of MOLM-13 AML cells treated with #02 at the indicated concentrations, or with SHP2 allosteric inhibitor RMC-4550 (RMC, 1 μM) for 3 h or 24 h. The quantitation of p-ERK1/2 levels is shown as the percentage of the DMSO (vehicle) control and represents data from three independent experiments (mean±SD). F) Viability of AML patient-derived cells in the presence of 10 μM #02 or 10 μM SHP2 allosteric inhibitor RMC-4550 after 2 d, 4 d, or 6 d in culture. Cell viability is shown as a percentage of the DMSO vehicle control and represents the mean±SD (*p<0.05; **p<0.01; ****p<0.0001; unpaired test with Welch's correction) G) Viability of MOLM-13 cells and MOLM-13-Cas9-mCherry cells with SHP2 knockout (KO) in the presence of #01, #02, and allosteric inhibitor SHP099 at various concentrations (10-point dose-response). The percentages compared to the DMSO vehicle control were curve fitted using nonlinear regression (log[inhibitor] vs. normalized response, variable slope) and represent the mean±SD. SHP2 protein levels in regular MOLM-13 cells (WT), MOLM-13-Cas9-mCherry cells (Cas9), and MOLM-13-Cas9-mCherry cells with SHP2 KO (SHP2 KO) were evaluated by immunoblot analysis using SHP2 antibodies.
Viability of AML, esophageal carcinoma, and TF-1 cells was assessed using the ATP-depletion assay CellTiter-Glo® (Promega). Cells were harvested at 1×10^6/mL to 2×10^6 cells/mL with cell numbers determined by trypan blue using the Countess Cell counter (Thermo Scientific) and resuspended in culture media. […] Luminescence was read on a Tecan Spark® Multimode Microplate Reader and data analyzed using Graph Pad Prism software.

full-length SHP2 wild-type (SHP2-WT), sequence (Q06124 whole entry, other chains not shown, the tested form may be a part): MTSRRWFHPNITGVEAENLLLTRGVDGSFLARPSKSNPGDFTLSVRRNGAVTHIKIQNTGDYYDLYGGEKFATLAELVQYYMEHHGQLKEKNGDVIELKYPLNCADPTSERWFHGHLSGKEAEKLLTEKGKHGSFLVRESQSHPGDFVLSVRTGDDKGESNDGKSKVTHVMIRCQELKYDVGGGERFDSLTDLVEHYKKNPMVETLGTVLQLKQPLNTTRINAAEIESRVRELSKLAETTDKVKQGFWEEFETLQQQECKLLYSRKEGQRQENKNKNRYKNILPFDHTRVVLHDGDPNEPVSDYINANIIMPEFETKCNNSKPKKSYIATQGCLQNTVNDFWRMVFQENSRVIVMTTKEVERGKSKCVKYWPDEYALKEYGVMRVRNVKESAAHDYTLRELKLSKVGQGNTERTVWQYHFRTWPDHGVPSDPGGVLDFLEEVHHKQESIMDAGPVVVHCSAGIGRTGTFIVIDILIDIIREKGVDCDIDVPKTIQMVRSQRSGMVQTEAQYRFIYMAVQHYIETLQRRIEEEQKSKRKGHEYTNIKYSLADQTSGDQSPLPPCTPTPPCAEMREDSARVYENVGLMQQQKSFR

SMILES: Nc1ccc(NC(=O)c2cc(-c3ccc(/C=C4\Sc5ccccc5C4=O)o3)ccc2O)cc1 [#01, (Z)—N-(4-Aminophenyl)-2-hydroxy-5-(5-((3-oxobenzo[b]thiophen-2(3H)-ylidene)methyl)furan-2-yl)benzamide]
- IC50 [1]: 1 to 20 µM
- effect on cancer cell growth [2]: dose-dependently inhibited cancer cell growth

SMILES: O=C(Nc1ccccc1)c1cc(-c2ccc(/C=C3\Sc4ccccc4C3=O)o2)ccc1O [#02, (Z)-2-hydroxy-5-(5-((3-oxobenzo[b]thiophen-2(3H)-ylidene)methyl)furan-2-yl)-N-phenylbenzamide]
- IC50 [1]: 1 to 20 µM
- effect on cancer cell growth [2]: dose-dependently inhibited cancer cell growth

SMILES: N#Cc1cc(-c2ccc(/C=C3\Sc4ccccc4C3=O)o2)ccc1O [#05, (Z)-2-Hydroxy-5-(5-((3-oxobenzo[b]thiophen-2(3H)-ylidene)methyl)furan-2-yl)benzonitrile]
- IC50 [1]: 1 to 20 µM
- effect on cancer cell growth [2]: dose-dependently inhibited cancer cell growth
